In PubChem BioAssay (NCI):
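Five concentrations, 48 hours, 96-well plates. GI50 is the concentration that inhibits growth by half. Definition used: TGI = concentration required for complete inhibition of growth.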

What was measured:
Assay in all cases: NCI-60 cell line screen, 48 h
UACC-257 melanoma = tested on: UACC-257 melanoma
UO-31 renal = tested on: UO-31 renal
NCI-H460 lung = tested on: NCI-H460 lung
OVCAR-3 ovarian = tested on: OVCAR-3 ovarian
786-0 renal = tested on: 786-0 renal
IGROV1 ovarian = tested on: IGROV1 ovarian
U251 CNS = tested on: U251 CNS
RXF 393 renal = tested on: RXF 393 renal
ACHN renal = tested on: ACHN renal
A549 NSCLC = tested on: A549 NSCLC

Structure (SMILES) | GI50 (UACC-257 melanoma) | TGI (UACC-257 melanoma) | GI50 (UO-31 renal) | TGI (UO-31 renal) | GI50 (NCI-H460 lung) | TGI (NCI-H460 lung) | GI50 (OVCAR-3 ovarian) | TGI (OVCAR-3 ovarian) | GI50 (786-0 renal) | TGI (786-0 renal) | GI50 (IGROV1 ovarian) | TGI (IGROV1 ovarian) | GI50 (U251 CNS) | TGI (U251 CNS) | GI50 (RXF 393 renal) | TGI (RXF 393 renal) | GI50 (ACHN renal) | TGI (ACHN renal) | GI50 (A549 NSCLC) | TGI (A549 NSCLC)
COc1ccc(C(=O)c2cc(OC)c(OC)c(OC)c2)cc1/C=C/C(=O)c1ccc(O)cc1 | 7.77 µM | 26.6 µM | 3.2 µM | 16.2 µM | 2.56 µM | 7.23 µM | 3 µM | 8.47 µM | 1.66 µM | 3.74 µM | 9.94 µM | 34.8 µM | 4.58 µM | 18.3 µM | 3.57 µM | 14.9 µM | 5.22 µM | 21.5 µM | 18.7 µM | > 100 µM
CC1=C(C(=O)Nc2ccc(F)c(Cl)c2)C(c2cccc(O)c2)NC(=S)N1 (stereo unspecified) | 16.5 µM | 44.4 µM | > 50 µM | > 50 µM | 22.8 µM | > 50 µM | 17.9 µM | > 50 µM | 19.1 µM | > 50 µM | 22.9 µM | > 50 µM | 16.6 µM | > 50 µM | 14 µM | 30.5 µM | 24.5 µM | > 50 µM | 21 µM | > 50 µM
CC(C)(C)[Si](C)(C)OC1[C@@H](O[Si](C)(C)C(C)(C)C)[C@@H](CNC(=O)NC(=O)NC(=O)CI)O[C@H]1n1cnc2c(NC(=O)Nc3ccccc3)ncnc21 (stereo partly specified) | 7.42 µM | 16.7 µM | 0.0888 µM | 0.178 µM | 4.79 µM | 21.7 µM | 0.215 µM | 0.62 µM | 0.357 µM | 1.08 µM | 0.113 µM | 0.246 µM | 0.443 µM | 1.88 µM | 0.713 µM | 3.11 µM | 1.41 µM | 9.75 µM | 1.57 µM | 11.9 µM
O=P(Oc1ccccc1)(Oc1ccccc1)C(O)c1ccccc1 (stereo unspecified) | 36.5 µM | > 100 µM | 29.8 µM | > 100 µM | > 100 µM | > 100 µM | 43.9 µM | > 100 µM | > 100 µM | > 100 µM | 37.2 µM | > 100 µM | 48.9 µM | > 100 µM | 60.6 µM | > 100 µM | > 100 µM | > 100 µM | > 100 µM | > 100 µM
O=C(Nc1ncc([N+](=O)[O-])s1)c1cccc([N+](=O)[O-])c1 | 3.19 µM | 13.8 µM | 2.55 µM | 9.87 µM | 2.8 µM | > 100 µM | 3.18 µM | > 100 µM | 2.57 µM | > 92 µM | 3.98 µM | > 56.3 µM | 3.54 µM | > 100 µM | 2.44 µM | 6.91 µM | 5.41 µM | > 68.1 µM | 4.24 µM | 42.5 µM
NCCCn1c2c(c3ccccc3c1=O)C(=O)c1cc3c(cc1-2)OCO3 | 1.95 µM | 12.6 µM | 0.265 µM | 1.99 µM | 0.0547 µM | 12.6 µM | 0.766 µM | 3.85 µM | 0.241 µM | 3.1 µM | 0.374 µM | 9.2 µM | 0.149 µM | 1.52 µM | 2.35 µM | > 30.3 µM | 0.061 µM | 0.295 µM | 0.0273 µM | 0.658 µM
Cc1ccc(C)c(NC(=O)CC2C(=O)Nc3ccccc3S2(=O)=O)c1 (stereo unspecified) | – | > 100 µM | – | > 100 µM | – | > 100 µM | – | > 100 µM | – | 56.5 µM | – | > 100 µM | – | > 100 µM | – | 49.6 µM | – | > 100 µM | – | > 100 µM
OCc1ccc(N(Cc2ccc(F)cc2)C2CCC2)cc1Cl | 0.121 µM | 0.46 µM | 1.88 µM | 15.2 µM | 0.275 µM | 10.2 µM | 0.403 µM | 2.05 µM | 10.3 µM | 24.3 µM | 0.0698 µM | 0.339 µM | 1.02 µM | 16.2 µM | 3.57 µM | 16.6 µM | 13.2 µM | 26.4 µM | 2.04 µM | 17.9 µM
C=C1C(=O)OC2C1C(OC(=O)/C(C)=C/C)CC(O)(CCl)C1C(OC(C)=O)C=C(C)C21O (stereo unspecified) | – | 34.1 µM | – | 35 µM | – | 46.1 µM | – | 23.4 µM | – | 32.9 µM | – | 30 µM | – | 41.2 µM | – | 25 µM | – | 22.7 µM | – | > 67.3 µM
COc1cc2c3c(n(CCCO)c(=O)c2cc1OC)-c1cc2c(cc1C3=O)OCO2 | 64.7 µM | > 100 µM | > 21.2 µM | > 100 µM | 0.845 µM | > 100 µM | 21.6 µM | > 81.9 µM | 2.46 µM | 10.1 µM | 17.4 µM | > 100 µM | 2.63 µM | 27.8 µM | 27.1 µM | > 94.6 µM | 1.65 µM | 9.83 µM | 16.9 µM | > 100 µM
Cc1ccc(C2=[N+]([O-])c3ccccc3C2=O)cc1 | – | 33 µM | – | > 87.9 µM | – | > 100 µM | – | 32.2 µM | – | 69.4 µM | – | 43 µM | – | 44.9 µM | – | 26.6 µM | – | 32 µM | – | > 90.7 µM
COc1ccc(-n2c(-c3ccc(NC(=O)CCCl)cc3)nnc2-c2cc(OC)c(OC)c(OC)c2)cc1 | 6.23 µM | > 14.3 µM | 1.94 µM | 4.37 µM | 2.5 µM | 7.33 µM | 2.58 µM | 7.78 µM | 12.5 µM | > 14.3 µM | 2.9 µM | > 14.3 µM | 3.69 µM | 13.5 µM | 2.44 µM | 5.02 µM | 2.21 µM | 8.4 µM | 3.89 µM | 11.2 µM
Nc1nc(SCC(=O)O)[nH]c(=O)c1N | – | > 100 µM | – | > 100 µM | – | > 100 µM | – | > 100 µM | – | > 100 µM | – | > 100 µM | – | > 100 µM | – | > 100 µM | – | > 100 µM | – | > 100 µM
COc1ccc(/C=C\c2cc(OC)c(OC)c(OC)c2)cc1NC(=O)[C@@H](N)CO | 27.1 µM | > 100 µM | 0.0486 µM | > 69.7 µM | 0.0321 µM | > 100 µM | < 0.0122 µM | 0.0415 µM | 0.0188 µM | > 40.3 µM | 0.0273 µM | > 92.6 µM | 0.0165 µM | > 100 µM | < 0.01 µM | 26.7 µM | 0.0268 µM | > 100 µM | 0.0295 µM | > 100 µM
CC1=C2C(=CC(C)(CO)C2O)C(=O)C(C)(O)C12CC2 (stereo unspecified) | – | 0.00867 µM | 0.0164 µM | 0.039 µM | – | 0.0046 µM | – | 0.019 µM | – | 0.014 µM | – | 0.106 µM | – | 0.0211 µM | – | 0.00569 µM | – | 0.0132 µM | – | 0.0902 µM
O=C(O)C(Cc1ccccc1-c1ccccc1)C(=O)O | – | > 100 µM | – | > 100 µM | – | > 100 µM | – | > 100 µM | – | > 100 µM | – | > 100 µM | – | > 100 µM | – | > 100 µM | – | > 100 µM | – | > 100 µM
COC(=O)/C=C1\SC(=Nc2ccc(C(F)(F)F)cc2)N(CCc2c[nH]c3ccccc23)C1=O | 1.67 µM | 3.18 µM | 1.3 µM | 2.56 µM | 2.04 µM | 4.28 µM | 1.5 µM | 2.9 µM | 1.56 µM | 2.95 µM | 1.82 µM | 3.59 µM | 1.63 µM | 2.99 µM | 1.43 µM | 2.98 µM | 1.56 µM | 2.9 µM | 2.01 µM | 4.8 µM
C=C(CN1CCc2ccccc2C1)c1ccc(/C=C/C(=O)Nc2ccccc2N)cc1 | 1.3 µM | 28 µM | 0.437 µM | > 100 µM | 3.18 µM | 38.1 µM | 5.59 µM | 51 µM | 3.81 µM | 24.4 µM | 4.46 µM | > 100 µM | 3.42 µM | 27.8 µM | 12.1 µM | > 100 µM | 5.4 µM | > 100 µM | 1.79 µM | > 100 µM
O=C1C(Cl)=C(Oc2ccccc2)C(=O)c2ccccc21 | 4.65 µM | 14.1 µM | 1.23 µM | 3.23 µM | 5.57 µM | 23.1 µM | 1.83 µM | 3.42 µM | 15.6 µM | 29.1 µM | 2.96 µM | 9.63 µM | 3.57 µM | 13.4 µM | 2.75 µM | 6.84 µM | 1.63 µM | 3.14 µM | 21 µM | 51.8 µM
COC1CCC2C(=O)CCCC2O1 (stereo unspecified) | – | > 100 µM | – | > 100 µM | – | > 100 µM | – | > 100 µM | – | > 100 µM | – | > 100 µM | – | > 100 µM | – | > 100 µM | – | > 100 µM | – | > 100 µM
CCOC(=O)Oc1c(OC)cc(C(=O)c2ccc(OC)c(OC(=O)CCl)c2OC)cc1OC | 66.6 µM | > 100 µM | 3.07 µM | > 100 µM | 2.09 µM | 44.9 µM | 0.414 µM | 23 µM | 3.45 µM | > 100 µM | 3.36 µM | > 100 µM | 0.926 µM | > 100 µM | 1.54 µM | 8.08 µM | 3.66 µM | > 100 µM | 3.39 µM | > 100 µM
